Laboratory results published in patent publication US11613531B2, “Inhibitors of RHO associated coiled-coil containing protein kinase” (Kadmon Corporation, LLC, priority 2017, dated 2023).
Where two headings read alike, the source gives them in different places.

Columns and labels:
[1] = target: Recombinant ROCK2 (amino acids 1-552) (Homo sapiens (Human), UniProt O75116); test: Z′-Lyte kinase assay, ROCK2; assay type: biochemical; conditions: for inhibition at 0.5 µM: 0.5 μM compound; for inhibition at 0.5 µM / inhibition at 1 µM / inhibition at 3 µM: read-out: ROCK2 % inh. @ [conc]; for inhibition at 1 µM: 1 μM compound; for inhibition at 3 µM: 3 μM compound
How it was run: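 IC50s derive from nonlinear curve fits over a 9-point, 2-fold dilution series, with single-point inhibition at 1 μM expressed relative to DMSO. Activity of truncated human ROCK1 (residues 1-535) and ROCK2 (residues 1-552) measured with the Z′-Lyte kinase format.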

[2] = system: ppMlc (T18/S19) levels in A7R5 cells; test: A7R5 in-cell ELISA (pMLC); assay type: cell-based, Rat; conditions: Rattus norvegicus, A7R5, A7R5 cells; for inhibition at 1 µM: 1 μM compound; for inhibition at 1 µM / inhibition at 10 µM: read-out: pMLC % inh A7R5 @ [conc]; for inhibition at 10 µM: 10 μM compound
How it was run: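 Cellular IC50 came from a nonlinear regression fit of ppMlc (T18/S19) signal, read by colorimetric in-cell ELISA on fixed cells. Rat A7R5 aortic smooth muscle cells had been exposed for 90 min to compounds in 9-point 2-fold serial dilution, 24 h after seeding.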

[3] = system: human ACTA2 gene promoter luciferase reporter in NIH3T3 cells; test: NIH3T3 Acta2-promoter driven-luciferase assay; assay type: cell-based; conditions: NIH3T3, 24 h, read-out: NIH3T3 Acta2-luc, IC50
Description: NIH3T3 Cells Acta2-Promoter Driven-Luciferase Assay.
A NIH3T3 cell line stably expressing a luciferase reporter driven by the human ACTA2 gene promoter (−1000-1 bp) was established (NIH3T3-Acta2-luciferase). The cells were plated to confluence and treated with the test compounds plus TGFβ1 for 24 hr. Cells were then lysed and luciferase activity was measured using the LightSwitch luciferase kit from Active Motif.
(§1) In vitro activities for the compounds were measured with Z′-lyte kinase kit (ThermoFisher Scientific). The percent inhibition rate was calculated by normalizing the kinase activity value obtained with 1 μM compound treatment against DMSO control value and then applied to the formula, [1-(compound/DMSO)]×100%. IC50s were calculated using the nonlinear regression curve fit function of the GraphPad Prism software with kinase activities data measured with 9 points 2-fold serial dilution of compounds treatment. In cell pMLC IC50s were calculated with data obtained from A7R5 cell experiments. A7R5 cells were treated with 9 points 2-fold serial dilution of compounds and ppMlc (T18/S19) levels were determined to calculate cellular IC50 values of the compounds using the nonlinear regression curve fit function of the GraphPad Prism software. NIH3T3 cells stably expressing ACTA2-promoter-driven-luciferase were applied to measure ROCK compounds functional IC50s in cells. Cells were plated in 96 well plates to confluence and treated with 9 points serial dilution of compounds in combination with TGFβ1 for 24 hr. Luciferase activities were measured and compound's IC50s were calculated using the nonlinear regression curve fit function of the GraphPad Prism software.
ROCK inhibitors can be effectively rank ordered by ACTA2-promoter-driven-luciferase reporter cell assay. NIH3T3 cells stably expressing ACTA2-promoter-driven-luciferase were plated in 96 well plates to confluence and treated with 9 points serial dilution of compounds in combination with TGFβ1 for 24 hr. Luciferase activities were measured and compound's IC50s were calculated. By this assay multiple compounds of the invention gave IC50s under 200 nM.

[4] = target: Recombinant ROCK1 (amino acids 1-535) (Homo sapiens (Human), UniProt Q13464); test: Z′-Lyte kinase assay, ROCK1; assay type: biochemical; conditions: for inhibition at 3 µM: 3 μM compound; for inhibition at 3 µM / inhibition at 0.5 µM: read-out: ROCK1 % inh. @ [conc]; for inhibition at 0.5 µM: 0.5 μM compound
Description: Determination of Compound's ROCK Inhibitory Activity In Vitro (Z'Lyte Assay).
Recombinant ROCK1 (amino acids 1-535) and ROCK2 (amino acids 1-552) proteins were purchased from ThermoFisher Scientific. Compound's activities were measured by Z′-lyte kinase kit (ThermoFisher Scientific) and IC50 was calculated
as §1

[5] = NIH3T3 cells, plus TGFβ1 for 24 hr
[6] = 9 points 2-fold serial dilution

Recombinant ROCK2 (amino acids 1-552), sequence (O75116 1-552): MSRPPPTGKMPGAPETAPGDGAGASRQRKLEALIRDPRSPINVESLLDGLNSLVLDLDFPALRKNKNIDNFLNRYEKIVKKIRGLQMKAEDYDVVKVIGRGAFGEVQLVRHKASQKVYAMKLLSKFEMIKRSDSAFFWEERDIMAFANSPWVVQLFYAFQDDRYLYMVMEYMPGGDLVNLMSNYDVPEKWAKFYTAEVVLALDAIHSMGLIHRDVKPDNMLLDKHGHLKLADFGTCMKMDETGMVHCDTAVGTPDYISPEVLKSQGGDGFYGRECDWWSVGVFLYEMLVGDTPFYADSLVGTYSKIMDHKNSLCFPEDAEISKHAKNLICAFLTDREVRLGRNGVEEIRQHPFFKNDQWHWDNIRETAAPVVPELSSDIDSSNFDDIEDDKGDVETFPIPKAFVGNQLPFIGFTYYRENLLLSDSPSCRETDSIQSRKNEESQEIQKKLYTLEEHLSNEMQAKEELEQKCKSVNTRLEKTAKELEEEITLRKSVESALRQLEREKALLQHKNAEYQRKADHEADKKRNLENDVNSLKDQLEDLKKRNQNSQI
Recombinant ROCK1 (amino acids 1-535), sequence (Q13464 1-535): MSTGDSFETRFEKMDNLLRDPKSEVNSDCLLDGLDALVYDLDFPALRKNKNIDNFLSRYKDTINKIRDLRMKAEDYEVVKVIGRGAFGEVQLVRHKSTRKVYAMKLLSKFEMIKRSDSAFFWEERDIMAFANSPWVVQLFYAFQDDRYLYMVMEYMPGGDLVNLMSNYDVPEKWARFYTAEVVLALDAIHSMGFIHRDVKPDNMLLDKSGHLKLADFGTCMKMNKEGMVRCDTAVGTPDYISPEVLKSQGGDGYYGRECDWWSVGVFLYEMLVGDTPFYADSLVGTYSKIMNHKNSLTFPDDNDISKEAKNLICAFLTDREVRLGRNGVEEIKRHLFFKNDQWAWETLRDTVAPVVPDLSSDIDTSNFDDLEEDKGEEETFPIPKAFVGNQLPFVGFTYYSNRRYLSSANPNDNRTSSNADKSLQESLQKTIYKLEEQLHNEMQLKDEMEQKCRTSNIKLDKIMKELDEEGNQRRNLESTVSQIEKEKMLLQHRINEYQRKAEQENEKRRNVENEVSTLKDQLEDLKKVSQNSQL

Row | SMILES | IC50 [2] [nM] | IC50 [1] [nM] | IC50 ([3]; with TGFβ1, 24 hr) [nM] | inhibition at 1 µM [2] [%] | inhibition at 10 µM [2] [%] | other results
1 | c1cc(-c2ccc(Nc3nc(N4C5CCC4CNC5)nc4c3COCC4)cc2)ccn1 [Example 37, 2-(3,8-diazabicyclo[3.2.1]octan-8-yl)-N-(4-(pyridin-4-yl)phenyl)-7,8-dihydro-5H-pyrano[4,3-d]pyrimidin-4-amine] | 7060 |  | > 10000 |  |  | 
2 | c1cc(Nc2ccc3[nH]ncc3c2)nc(N2CC[C@@H]3NC[C@@H]3C2)n1 [Example 82, N-(2-((1R,6S)-3,7-diazabicyclo[4.2.0]octan-3-yl)pyrimidin-4-yl)-1H-indazol-5-amine] | 572 | 12 | 3420 | 42.5 |  | 
3 | Cc1cnc(N2CCNC(C(C)C)C2)nc1Nc1ccc2[nH]ncc2c1 (stereo not drawn) [Example 101, N-(2-(3-isopropylpiperazin-1-yl)-5-methylpyrimidin-4-yl)-1H-indazol-5-amine] |  |  |  |  | 19.2 | IC50 [3, 5]: 7530 nM
4 | Cc1cc(Nc2ccc3[nH]ncc3c2)nc(N2CCNCC(C)C2)n1 (stereo not drawn) [Example 118, N-(6-methyl-2-(6-methyl-1,4-diazepan-1-yl)pyrimidin-4-yl)-1H-indazol-5-amine] |  |  |  | 32.9 |  | inhibition at 1 µM [1]: 95.6%; IC50 [1, 6]: 90 nM; IC50 ([2]; ppMlc (T18/S19)): 382 nM; IC50 [3, 5]: 3730 nM
5 | Fc1cnc(N2CC3CCC2CN3)nc1Nc1ccc2[nH]ncc2c1 (stereo not drawn) [Example 154, N-(2-(2,5-diazabicyclo[2.2.2]octan-2-yl)-5-fluoropyrimidin-4-yl)-1H-indazol-5-amine] |  |  |  | 36.2 |  | inhibition at 1 µM [1]: 98.5%; IC50 [1, 6]: 245 nM; IC50 ([2]; ppMlc (T18/S19)): 433 nM; IC50 [3, 5]: 2910 nM
6 | CCC1CCN(c2nccc(Nc3ccc(-c4ccncc4)cc3)n2)CCN1 (stereo not drawn) [Example 249, 2-(5-ethyl-1,4-diazepan-1-yl)-N-(4-(pyridin-4-yl)phenyl)pyrimidin-4-amine] |  |  |  |  | 33.6 | IC50 [1, 6]: > 1000 nM; IC50 [4, 6]: > 1000 nM
7 | CC(C)C1CCN(c2nccc(Nc3ccc(-c4ccncc4)cc3)n2)CCN1 (stereo not drawn) [Example 250, 2-(5-isopropyl-1,4-diazepan-1-yl)-N-(4-(pyridin-4-yl)phenyl)pyrimidin-4-amine] |  |  |  |  | 50.4 | IC50 [1, 6]: > 1000 nM; IC50 ([2]; ppMlc (T18/S19)): 5440 nM; IC50 [4, 6]: > 1000 nM
8 | CC(C)C1CN(c2nccc(Nc3ccc(-c4ccncc4)cc3)n2)CCCN1 (stereo not drawn) [Example 251, 2-(3-isopropyl-1,4-diazepan-1-yl)-N-(4-(pyridin-4-yl)phenyl)pyrimidin-4-amine] |  |  |  |  | 66.9 | IC50 [1, 6]: 160 nM; IC50 ([2]; ppMlc (T18/S19)): 614 nM; IC50 [4, 6]: 57 nM
9 | c1ccc(C2CCN(c3nccc(Nc4ccc(-c5ccncc5)cc4)n3)CCN2)cc1 (stereo not drawn) [Example 271, 2-(5-phenyl-1,4-diazepan-1-yl)-N-(4-(pyridin-4-yl)phenyl)pyrimidin-4-amine] |  |  |  |  | 28.3 | IC50 [1, 6]: > 1000 nM; IC50 [4, 6]: > 1000 nM
10 | c1ccc2c(Nc3ccc(-c4ccncc4)cc3)nc(N3CCCNCC3)nc2c1 [Example 272, 2-(1,4-diazepan-1-yl)-N-(4-(pyridin-4-yl)phenyl)quinazolin-4-amine] |  |  |  |  | 53.3 | inhibition at 3 µM [1]: 85.8%; inhibition at 3 µM [4]: 88.5%
11 | c1cc(-c2ccc(Nc3ccnc(N4CCCNCC4)n3)cc2)ccn1 [Example 273, 2-(1,4-diazepan-1-yl)-N-(4-(pyridin-4-yl)phenyl)pyrimidin-4-amine] |  |  |  |  | 44.1 | inhibition at 3 µM [1]: 85.6%; inhibition at 3 µM [4]: 89.1%
12 | c1cc(-c2ccc(Nc3nc(N4C5CCC4CNC5)nc4c3COC4)cc2)ccn1 [Example 281, 2-(3,8-diazabicyclo[3.2.1]octan-8-yl)-N-(4-(pyridin-4-yl)phenyl)-5,7-dihydrofuro[3,4-d]pyrimidin-4-amine] |  | 2570 |  | 10.4 |  | inhibition at 0.5 µM [1]: 10%; inhibition at 0.5 µM [4]: 14%
13 | c1cc2[nH]ncc2cc1Nc1nc(N2C3CNCC2C3)nc2c1COC2 [Example 283, 2-(3,6-diazabicyclo[3.1.1]heptan-6-yl)-N-(1H-indazol-5-yl)-5,7-dihydrofuro[3,4-d]pyrimidin-4-amine] |  | < 0.1 |  | 25.8 |  | inhibition at 0.5 µM [1]: 101%; inhibition at 0.5 µM [4]: 101%
14 | c1cc2[nH]ncc2cc1Nc1nc(N2CC3CC2CN3)nc2c1COC2 (stereo not drawn) [Example 284, 2-(2,5-diazabicyclo[2.2.1]heptan-2-yl)-N-(1H-indazol-5-yl)-5,7-dihydrofuro[3,4-d]pyrimidin-4-amine] |  |  |  | 24.1 |  | inhibition at 0.5 µM [1]: 30%; inhibition at 0.5 µM [4]: 25%
15 | CN1CCc2c(nc(N3C4CNCC3C4)nc2Nc2ccc3[nH]ncc3c2)C1 [Example 313, 2-(3,6-diazabicyclo[3.1.1]heptan-6-yl)-N-(1H-indazol-5-yl)-7-methyl-5,6,7,8-tetrahydropyrido[3,4-d]pyrimidin-4-amine] | 3030 | 14 |  |  |  | inhibition at 0.5 µM [1]: 99%; inhibition at 0.5 µM [4]: 94%
16 | CNc1cc(Nc2ccc3[nH]ncc3c2)nc(N2C3CCC2CNC3)n1 [Example 329, 2-(3,8-diazabicyclo[3.2.1]octan-8-yl)-N4-(1H-indazol-5-yl)-N6-methylpyrimidine-4,6-diamine] |  | 1.8 | 90 |  |  | 
17 | CN(C)c1cc(Nc2cc3cn[nH]c3cc2F)nc(N2C3CCC2CNC3)n1 [Example 331, 2-(3,8-diazabicyclo[3.2.1]octan-8-yl)-N4-(6-fluoro-1H-indazol-5-yl)-N6,N6-dimethylpyrimidine-4,6-diamine] |  | 5.9 | 318 |  |  | 
18 | c1cncc(-c2cccc(Nc3ccnc(N4CCNCC4)n3)c2)c1 [Example 346, 2-(piperazin-1-yl)-N-(3-(pyridin-3-yl)phenyl)pyrimidin-4-amine] |  | > 10000 |  |  | 12.3 | IC50 [4]: > 10000 nM

The next lines start with results.

Row | IC50 [2] [nM] | SMILES | IC50 [1] [nM] | IC50 ([3]; with TGFβ1, 24 hr) [nM] | inhibition at 1 µM [2] [%] | inhibition at 10 µM [2] [%] | other results
19 | 6290 | CCOC(=O)[C@H]1N[C@@H]2C[C@@H]1CN(c1ncc(Cl)c(Nc3ccc4[nH]ncc4c3)n1)C2 (stereo in doubt) [Example 326, Ethyl 3-(4-((1H-indazol-5-yl)amino)-5-chloropyrimidin-2-yl)-3,6-diazabicyclo[3.2.1]octane-7-carboxylate] | 305 | > 10000 |  |  | inhibition at 0.5 µM [1]: 64%
20 | 377 | Cc1cc(Nc2ccc3[nH]ncc3c2)nc(N2CC3CNC(C3)C2)n1 (stereo not drawn) [Example 129, N-(2-(3,6-diazabicyclo[3.2.1]octan-3-yl)-6-methylpyrimidin-4-yl)-1H-indazol-5-amine] | 18 | 2920 | 50.6 |  | inhibition at 1 µM [1]: 101%
21 | 400 | Cc1cc(Nc2ccc3[nH]ncc3c2)nc(N2CCC3NCC3C2)n1 (stereo not drawn) [Example 135, N-(2-(3,7-diazabicyclo[4.2.0]octan-3-yl)-6-methylpyrimidin-4-yl)-1H-indazol-5-amine] | 9.7 | 2070 | 48.4 |  | 
22 | 259 | Fc1cnc(N2CC3CNC(C3)C2)nc1Nc1ccc2[nH]ncc2c1 (stereo not drawn) [Example 166, N-(2-(3,6-diazabicyclo[3.2.1]octan-3-yl)-5-fluoropyrimidin-4-yl)-1H-indazol-5-amine] |  | 2040 | 34.3 |  | inhibition at 1 µM [1]: 100%
23 | 395 | Fc1cnc(N2CCC3CNCC3CC2)nc1Nc1ccc2[nH]ncc2c1 (stereo not drawn) [Example 169, N-(5-fluoro-2-(octahydropyrrolo[3,4-d]azepin-6(1H)-yl)pyrimidin-4-yl)-1H-indazol-5-amine] |  | 1830 | 30.9 |  | inhibition at 1 µM [1]: 99.5%
